Test results taken from BigSolDB 2.1.

A solubility (mole fraction) (in PEG-400, 298.2 K) of 0.346, a solubility (mole fraction) (in PEG-400, 303.2 K) of 0.351 and a solubility (mole fraction) (in PEG-400, 308.2 K) of 0.358 were found for COc1cc(/C=C/c2ccc(O)cc2)cc(OC)c1 in this work. The solubility (mole fraction) (in PEG-400, 313.2 K) was 0.366, the solubility (mole fraction) (in PEG-400, 318.2 K) was 0.373 and the solubility (mole fraction) (in ethanol, 298.2 K) was 0.113. It also gave a solubility (mole fraction) (in ethanol, 303.2 K) of 0.117, a solubility (mole fraction) (in ethanol, 308.2 K) of 0.124 and a solubility (mole fraction) (in ethanol, 313.2 K) of 0.129. The solubility (mole fraction) (in ethanol, 318.2 K) was 0.136, the solubility (mole fraction) (in propylene glycol, 298.2 K) was 0.25 and the solubility (mole fraction) (in propylene glycol, 303.2 K) was 0.26. The solubility (mole fraction) (in propylene glycol, 308.2 K) was 0.272, the solubility (mole fraction) (in propylene glycol, 313.2 K) was 0.281 and the solubility (mole fraction) (in propylene glycol, 318.2 K) was 0.29. It also gave a solubility (mole fraction) (in transcutol, 298.2 K) of 0.23, a solubility (mole fraction) (in transcutol, 303.2 K) of 0.235 and a solubility (mole fraction) (in transcutol, 308.2 K) of 0.241. The solubility (mole fraction) (in transcutol, 313.2 K) was 0.248, the solubility (mole fraction) (in transcutol, 318.2 K) was 0.253 and the solubility (mole fraction) (in water, 298.2 K) was 1.27e-06. It also gave a solubility (mole fraction) (in water, 303.2 K) of 1.62e-06, a solubility (mole fraction) (in water, 308.2 K) of 2.04e-06 and a solubility (mole fraction) (in water, 313.2 K) of 2.53e-06. For the same compound, the solubility (mole fraction) (in water, 318.2 K) was 2.95e-06.
